In US6641707B2, “Biodegradation-resistant electrodepositable coating compositions and methods related thereto” (PPG Industries Ohio, Inc., priority 2001, dated 2003):

System: aerobic heterotrophs
Assay: Bacteria Resistance Testing: acids added to infected electrodeposition permeate, spread plate count on R2A agar
Assay type: cell-based
Details: reactors rolled at 32° C.; for Bacteria Count 3 day: plated at 3 days; for Bacteria Count 7 day: plated at 7 days; for Bacteria Count 10 day: plated at 10 days
Procedure: Infected rinsewater from an online electrodeposition bath tank (containing E6100, commercially available from PPG Industries, Inc.) having a bacterial count of 1.5×10^6 cfu/mL was used to inoculate filter-sterilized ultrafiltrate (“permeate”) collected from the same line. The infected rinsewater was diluted by a factor of 10^3 into the sterile permeate. The infected permeate was added to reactors. The various acids listed below in the following Table 2 were prepared as 1% solutions in water and tested at 1000, 500, and 200 ppm of active material. Reactors were rolled for 10 days at 32° C. and were plated for bacteria counts at 3, 7, and 10 days.
The enumeration of aerobic heterotrophs in the reactors utilized the standard spread plate method as described in Standard Methods for the Examination of Water and Wastewater, 1992, section 9215C. Bacterial counts were examined using R2A agar plates. 100 μL of a suitable dilution of sample was pipetted onto the surface of the media and spread with an alcohol and flame sterilized glass rod. The plates were inverted and incubated for 3 days at 32° C. with periodic examination. Colony forming units were counted on a New Brunswick Bactronic Colony Counter. A target of 30 to 300 cfu per plate was considered a valid count.

[1] = acid at 200 ppm of active material
[2] = acid at 500 ppm of active material
[3] = acid at 1000 ppm of active material

In the case of `COCCOCC(=O)O` [2-(2-methoxyethoxy)acetic, 2-(2-methoxyethoxy)acetic acid], the “Bacteria Count 3 day” value [1] was 8.0 × 10^6, the “Bacteria Count 7 day” value [1] was 2.8 × 10^7 and the “Bacteria Count 10 day” value [1] was 2.3 × 10^7. The “Bacteria Count 3 day” value [2] was <4.0 × 10^1, the “Bacteria Count 7 day” value [2] was >1.2 × 10^4 and the “Bacteria Count 10 day” value [2] was 4.0 × 10^6. For the same compound, the “Bacteria Count 3 day” value [3] was <4.0 × 10^1, the “Bacteria Count 7 day” value [3] was <4.0 × 10^1 and the “Bacteria Count 10 day” value [3] was <4.0 × 10^1.
With `COCCOCCOCC(=O)O` [2-[2-(2-methoxyethoxy)-ethox]acetic, 2-[2-(methoxyethoxy)ethoxy]acetic acid] the “Bacteria Count 3 day” value [1] was 3.2 × 10^6, the “Bacteria Count 7 day” value [1] was 4.0 × 10^7 and the “Bacteria Count 10 day” value [1] was 5.2 × 10^7. For the same compound, the “Bacteria Count 3 day” value [2] was <4.0 × 10^1, the “Bacteria Count 7 day” value [2] was >1.2 × 10^4 and the “Bacteria Count 10 day” value [2] was 6.4 × 10^6. The “Bacteria Count 3 day” value [3] was <4.0 × 10^1, the “Bacteria Count 7 day” value [3] was <4.0 × 10^1 and the “Bacteria Count 10 day” value [3] was <4.0 × 10^1.
With `CCCCOCC(=O)O` [Butoxyacetic, butoxyacetic acid] the “Bacteria Count 3 day” value [1] was 3.0 × 10^6, the “Bacteria Count 7 day” value [1] was 1.2 × 10^7 and the “Bacteria Count 10 day” value [1] was 5.6 × 10^7. For the same compound, the “Bacteria Count 3 day” value [2] was <4.0 × 10^1, the “Bacteria Count 7 day” value [2] was <4.0 × 10^1 and the “Bacteria Count 10 day” value [2] was <4.0 × 10^1. The “Bacteria Count 3 day” value [3] was <4.0 × 10^1, the “Bacteria Count 7 day” value [3] was <4.0 × 10^1 and the “Bacteria Count 10 day” value [3] was <4.0 × 10^1.
With `CCOCC(=O)O` [Ethoxyacetic, ethoxyacetic acid] the “Bacteria Count 3 day” value [1] was 1.3 × 10^6, the “Bacteria Count 7 day” value [1] was 3.2 × 10^7 and the “Bacteria Count 10 day” value [1] was 4.8 × 10^7. For the same compound, the “Bacteria Count 3 day” value [2] was <4.0 × 10^1, the “Bacteria Count 7 day” value [2] was <4.0 × 10^1 and the “Bacteria Count 10 day” value [2] was <4.0 × 10^1. The “Bacteria Count 3 day” value [3] was <4.0 × 10^1, the “Bacteria Count 7 day” value [3] was <4.0 × 10^1 and the “Bacteria Count 10 day” value [3] was <4.0 × 10^1.
In the case of `CC(O)C(=O)O` (stereo not drawn) [Lactic, lactic acid, reference compound], the “Bacteria Count 3 day” value [2] was 7.2 × 10^7, the “Bacteria Count 7 day” value [2] was 7.8 × 10^7 and the “Bacteria Count 10 day” value [2] was 2.4 × 10^7. For the same compound, the “Bacteria Count 3 day” value [3] was 2.4 × 10^7, the “Bacteria Count 7 day” value [3] was 5.0 × 10^7 and the “Bacteria Count 10 day” value [3] was 2.3 × 10^7.
With `COCC(=O)O` [Methoxyacetic, methoxyacetic acid] the “Bacteria Count 3 day” value [1] was <4.0 × 10^1, the “Bacteria Count 7 day” value [1] was <4.0 × 10^2 and the “Bacteria Count 10 day” value [1] was <4.0 × 10^1. The “Bacteria Count 3 day” value [2] was <4.0 × 10^1, the “Bacteria Count 7 day” value [2] was <4.0 × 10^1 and the “Bacteria Count 10 day” value [2] was <4.0 × 10^1. For the same compound, the “Bacteria Count 3 day” value [3] was <4.0 × 10^1, the “Bacteria Count 7 day” value [3] was <4.0 × 10^1 and the “Bacteria Count 10 day” value [3] was <4.0 × 10^1.
In the case of `O=C(O)COc1ccccc1` [Phenoxyacetic, phenoxyacetic acid], the “Bacteria Count 3 day” value [1] was 4.0 × 10^6, the “Bacteria Count 7 day” value [1] was 8.0 × 10^6 and the “Bacteria Count 10 day” value [1] was 3.2 × 10^7. For the same compound, the “Bacteria Count 3 day” value [2] was <4.0 × 10^1, the “Bacteria Count 7 day” value [2] was <4.0 × 10^1 and the “Bacteria Count 10 day” value [2] was <4.0 × 10^1. For the same compound, the “Bacteria Count 3 day” value [3] was <4.0 × 10^1, the “Bacteria Count 7 day” value [3] was <4.0 × 10^1 and the “Bacteria Count 10 day” value [3] was <4.0 × 10^1.
